Experimental data taken from US8530493B2, “Indolopyridines as Eg5 kinesin modulators” (4SC AG, priority 2006, dated 2013).

test system: RKO p21 uninduced (proliferating) colon adenocarcinoma cells; experiment: Alamar Blue cell viability assay, RKO p21 uninduced (proliferating); format: cell-based; settings: Homo sapiens, Table B3, anti-proliferative/cytotoxic activity, 72 hours, read-out: −log EC50 RKO p21 uninduced (proliferating) (converted)
In short: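 RKO p21 or p27 subclones grown without Ponasterone A, i.e. proliferating, exposed 24 h after seeding to semi-log compound dilutions in DMEM/10% FCS (1% DMSO controls) for 72 h at 37° C. Alamar Blue fluorescence (544/590 nm) read relative to untreated cells; EC50 from dose-response curves, given as −log EC50 (mol/l).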

Structure (SMILES) | EC50
CCNCCN1C(=O)N2[C@H](c3cccc(O)c3)c3[nH]c4ccc(OC)c(F)c4c3C[C@@]2(C)C1=O (racemic) [Example 407, (3aSR,10RS)-2-(2-Ethylamino-ethyl)-5-fluoro-10-(3-hydroxy-phenyl)-6-methoxy-3a-methyl-3a,4,9,10-tetrahydro-2,9,10a-triaza-cyclopenta[b]fluorene-1,3-dione] | 39.8 to 251 nM
C[C@@]12Cc3c([nH]c4ccc(OC(F)F)cc34)[C@@H](c3cccc(O)c3)N1C(=O)N(CCCNCC1CC1)C2=O (racemic) [Example 200, (3aSR,10RS)-2-[3-(Cyclopropylmethyl-amino)-propyl]-6-(1,1-difluoro-methoxy)-10-(3-hydroxy-phenyl)-3a-methyl-3a,4,9,10-tetrahydro-2,9,10a-triaza-cyclopenta[b]fluorene-1,3-dione] | 39.8 to 251 nM
CCN(CC)CCCN1C(=O)N2[C@H](c3cccc(O)c3)c3[nH]c4cc(F)c(Cl)cc4c3C[C@@]2(C)C1=O (racemic) [Example 469, (3aSR,10RS)-6-Chloro-2-(3-diethylamino-propyl)-7-fluoro-10-(3-hydroxy-phenyl)-3a-methyl-3a,4,9,10-tetrahydro-2,9,10a-triaza-cyclopenta[b]fluorene-1,3-dione] | ≤ 39.8 nM
CCOc1ccc2[nH]c3c(c2c1)C[C@@]1(C)C(=O)N(CCN(CC)CCOC)C(=O)N1[C@@H]3c1cccc(O)c1 (racemic) [Example 299, (3aSR,10RS)-6-Ethoxy-2-{2-[ethyl-(2-methoxy-ethyl)-amino]-ethyl}-10-(3-hydroxy-phenyl)-3a-methyl-3a,4,9,10-tetrahydro-2,9,10a-triaza-cyclopenta[b]fluorene-1,3-dione] | 39.8 to 251 nM
C[C@@]12Cc3c([nH]c4ccc(Br)cc34)[C@@H](c3cccc(O)c3)N1C(=O)N(CCN1CCCCCC1)C2=O (racemic) [Example 396, (3aSR,10RS)-2-(2-Azepan-1-yl-ethyl)-6-bromo-10-(3-hydroxy-phenyl)-3a-methyl-3a,4,9,10-tetrahydro-2,9,10a-triaza-cyclopenta[b]fluorene-1,3-dione] | 39.8 to 251 nM
C[C@@]12Cc3c([nH]c4ccc(Br)cc34)[C@@H](c3cccc(O)c3)N1C(=O)N(CCN1CCCCC1)C2=O (racemic) [Example 390, (3aSR,10RS)-6-Bromo-10-(3-hydroxy-phenyl)-3a-methyl-2-(2-piperidin-1-yl-ethyl)-3a,4,9,10-tetrahydro-2,9,10a-triaza-cyclopenta[b]fluorene-1,3-dione] | ≤ 39.8 nM
CCN(CC)CCCN1C(=O)N2[C@H](c3cccc(O)c3)c3[nH]c4ccc(Br)cc4c3C[C@@]2(C)C1=O (racemic) [Example 228, (3aSR,10RS)-6-Bromo-2-(3-diethylamino-propyl)-10-(3-hydroxy-phenyl)-3a-methyl-3a,4,9,10-tetrahydro-2,9,10a-triaza-cyclopenta[b]fluorene-1,3-dione] | ≤ 39.8 nM
C=CCNCCN1C(=O)N2[C@H](c3cccc(O)c3)c3[nH]c4cc(F)c(OC)cc4c3C[C@@]2(C)C1=O (racemic) [Example 254, (3aSR,10RS)-2-(2-Allylamino-ethyl)-7-fluoro-10-(3-hydroxy-phenyl)-6-methoxy-3a-methyl-3a,4,9,10-tetrahydro-2,9,10a-triaza-cyclopenta[b]fluorene-1,3-dione] | 39.8 to 251 nM
CCN(CC)CCN1C(=O)N2[C@H](c3cccc(O)c3)c3[nH]c4ccc(OC(F)F)cc4c3C[C@@]2(C)C1=O (racemic) [Example 276, (3aSR,10RS)-2-(2-Diethylamino-ethyl)-6-(1,1-difluoro-methoxy)-10-(3-hydroxy-phenyl)-3a-methyl-3a,4,9,10-tetrahydro-2,9,10a-triaza-cyclopenta[b]fluorene-1,3-dione] | ≤ 39.8 nM
CCN(CCO)CCN1C(=O)N2[C@H](c3cccc(O)c3)c3[nH]c4cc(F)c(OC)cc4c3C[C@@]2(C)C1=O (racemic) [Example 451, (3aSR,10RS)-2-{2-[Ethyl-(2-hydroxy-ethyl)-amino]-ethyl}-7-fluoro-10-(3-hydroxy-phenyl)-6-methoxy-3a-methyl-3a,4,9,10-tetrahydro-2,9,10a-triaza-cyclopenta[b]fluorene-1,3-dione] | 39.8 to 251 nM
CCN(CCO)CCCN1C(=O)N2[C@H](c3cccc(O)c3)c3[nH]c4ccc(OC)cc4c3C[C@@]2(C)C1=O [Example 543, (3aS,10R)-2-{3-[Ethyl-(2-hydroxy-ethyl)-amino]-propyl}-10-(3-hydroxy-phenyl)-6-methoxy-3a-methyl-3a,4,9,10-tetrahydro-2,9,10a-triaza-cyclopenta[b]fluorene-1,3-dione] | ≤ 39.8 nM
CCN(C)CCCN1C(=O)N2[C@H](c3cccc(O)c3)c3[nH]c4cc(F)c(Cl)cc4c3C[C@@]2(C)C1=O (racemic) [Example 467, (3aSR,10RS)-6-Chloro-2-[3-(ethyl-methyl-amino)-propyl]-7-fluoro-10-(3-hydroxy-phenyl)-3a-methyl-3a,4,9,10-tetrahydro-2,9,10a-triaza-cyclopenta[b]fluorene-1,3-dione] | ≤ 39.8 nM
CCOc1ccc2[nH]c3c(c2c1)C[C@@]1(C)C(=O)N(CCCN(C)C(C)C)C(=O)N1[C@@H]3c1cccc(O)c1 (racemic) [Example 197, (3aSR,10RS)-6-Ethoxy-10-(3-hydroxy-phenyl)-2-[3-(isopropyl-methyl-amino)-propyl]-3a-methyl-3a,4,9,10-tetrahydro-2,9,10a-triaza-cyclpenta[b]fluorene-1,3-dione] | 39.8 to 251 nM
CCOc1ccc2[nH]c3c(c2c1)C[C@@]1(C)C(=O)N(CCN(C)CC)C(=O)N1[C@@H]3c1cccc(O)c1 (racemic) [Example 158, (3aSR,10RS)-6-Ethoxy-2-[2-(ethyl-methyl-amino)-ethyl]-10-(3-hydroxy-phenyl)-3a-methyl-3a,4,9,10-tetrahydro-2,9,10a-triaza-cyclopenta[b]fluorene-1,3-dione] | ≤ 39.8 nM
C=CCNCCCN1C(=O)N2[C@H](c3cccc(O)c3)c3[nH]c4ccc(OCC)cc4c3C[C@@]2(C)C1=O (racemic) [Example 191, (3aSR,10RS)-2-(3-Allylamino-propyl)-6-ethoxy-10-(3-hydroxy-phenyl)-3a-methyl-3a,4,9,10-tetrahydro-2,9,10a-triaza-cyclopenta[b]bluorene-1,3-dione] | 39.8 to 251 nM
C[C@@]12Cc3c([nH]c4ccc(Cl)cc34)[C@@H](c3cccc(O)c3)N1C(=O)N(CCCN1CC=CC1)C2=O (racemic) [Example 173, (3aSR,10RS)-6-Chloro-2-[3-(2,5-dihydro-pyrrol-1-yl)-propyl]-10-(3-hydroxy-phenyl)-3a-methyl-3a,4,9,10-tetrahydro-2,9,10a-triaza-cyclopenta[b]fluorene-1,3-dione] | ≤ 39.8 nM
CCOc1ccc2[nH]c3c(c2c1)C[C@@]1(C)C(=O)N(CCN2CCCCC2)C(=O)N1[C@@H]3c1cccc(O)c1 (racemic) [Example 164, (3aSR,10RS)-6-Ethoxy-10-(3-hydroxy-phenyl)-3a-methyl-2-(2-piperidin-1-yl-ethyl)-3a,4,9,10-tetrahydro-2,9,10a-triaza-cyclopenta[b]fluorene-1,3-dione] | 39.8 to 251 nM
CCOc1ccc2[nH]c3c(c2c1)C[C@@]1(C)C(=O)N(CCCN(C)C)C(=O)N1[C@@H]3c1cccc(O)c1 (racemic) [Example 226, (3aSR,10RS)-2-(3-Dimethylamino-propyl)-6-ethoxy-10-(3-hydroxy-phenyl)-3a-methyl-3a,4,9,10-tetrahydro-2,9,10a-triaza-cyclopenta[b]fluorene-1,3-dione] | 39.8 to 251 nM
